From patent publication US20080226565A1, “Anticariogenic Proteins & Peptides & Saccharides” (priority 2004, published 2008) come the findings set out here.

Assay [1] in a line: Determination of the PF-value: Knoop micro hardness of tooth samples coated with product, then saliva and acetic acid (in-vitro). Details: species or system human. The text has this: The capacity to protect teeth against caries can be measured with a technique well known in the art (U.S. Pat. No. 5,279,814). Demineralization with acid, decreases the hardness of the tooth surface. The hardness can be quantified indirectly by measuring the depth of penetration of a needle in the surface (measurement of micro hardness). With this procedure, so called “Knoop” method, the needle is penetrating the surface under the pressure of constant weight and leaves a mark on the surface that allows the calculation of the depth of penetration. The more the tooth is suffering from demineralization, the softer its surface will get and the larger the depth of penetration will be (Knoop F., Peters C. G., Emerson W. B., A Sensitive Pyramidal Diamond Tool for Identation Measurments, J. Res. Natn. Bur. Stand. 23, 39-61 (1939).
The procedure includes the determination of the hardness of a human tooth sample with the Knoop method. Subsequently, the tooth is treated with an experimental protecting product outside the oral cavity.
It is cleaned softly with a paper towel until the coating is invisible.
Subsequently the tooth sample is submerged in a batch of human saliva in order to simulate the conditions in the oral cavity. After removal from the saliva batch (after 30 min.) it is treated with acid over a constant time period of 30 min. at 37° C. The acid is washed away, the tooth is dried on air and the hardness is measured again. The change in hardness (delta P in μm) is obtained by comparing with the hardness of the tooth before treatment. This experiment is repeated on other tooth samples. The effect of acid on unprotected teeth is obtained by carrying out the same procedure but without the use of an experimental protecting product (delta Pa). The protecting capacity (“PF” protection factor) of an experimental protecting compound can be defined as: […]
The ability of a product to protect teeth (PF-value) is determined with the Knoop method. A tooth sample, size 3×3×3 mm is cut from a human tooth and embedded into polymerizing resin in such a way that the surface of the tooth sample appears on the surface of the (resin) cube after the resin has become solid. The surface of the tooth is mechanically polished with rotating silicon carbide abrasive paper (Struers P1200-P2400-P4000) and the micro hardness of the enamel is determined with a Knoop diamant needle (Leitz-Wetzlar;
microdurometer “Durimet”; weight 50 gr; penetration-time: 30 seconds (Collys et al., J. Dent. Res. 1990; 69: 458-462)).
The penetration leaves a mark on the tooth surface, which is related to the depth of penetration (μm) and which can be analyzed under the microscope. […] The determination of the depth of penetration is repeated six times on each of the tooth samples and the average value is calculated. In order to determine the effect of acid on the hardness of the surface, use is made of an acetic acid buffer from Merck (pH 5; 0.1N). One drop of acid is positioned on the enamel for a period of 30 minutes at 37° C. The sample is cleaned with demineralized water and dried. The hardness is measured again according to the method of Knoop. This procedure is repeated 4 times, which means that the sample has been subjected to acid for a total period of two hours.
A graph (Y: penetration depth μm; X: 5 treatment stages) can be made on the basis of 5 average values (each of them based on six measurement), one obtained before treatment with acid, and the other 4 obtained after each of the 4 treatment-stages with acid. A logaritmic regressionline is calculated.

In assay [2] the test system is microaerophilic bacteria isolated from the oral cavity. The assay can be described thus: Susceptibility (MIC), agar dilution, microaerophilic bacteria. Format: cell-based. As for the experimental part: (§1) The investigations included more than hundred strains isolated from the oral cavity: : anaerobes, microaerophilic bacteria, aerobes, Streptococcus spp. and yeast like fungi. The microorganisms were isolated from saliva, mucosal membrane, gingival pockets and caries decay. The susceptibility (MIC) of bacteria and yeastlike fungi were determined by means of plate dilution technique in agar.
(§2) The investigated samples were dissolved in sterile distilled water (immediately before the experiment) to obtain the following concentrations: 3.5, 1.7, 0.8, 0.4 and 0.2 mg/ml and were added into appropriate agar. The plates were inoculated using a Steers multipoint inoculator. Inoculum contained 10^6 CFU/spot. […]
(§3) Anaerobes. The susceptibility of bacteria was determined by means of the agar dilution methods with Brucella agar supplemented with 5% defibrinated sheep's blood, menadione and hemin. […] The susceptibility of bacteria was determined by means of the agar dilution methods with Brucella agar supplemented with 5% sheep's blood. […] The susceptibility of bacteria was determined by means of the agar dilution methods with Mueller-Hinton agar supplemented with 5% sheep's blood. […] The susceptibility to investigated samples was determined by means of the plate dilution technique in Mueller-Hinton agar. […]

The test system of assay [3] is Streptococcus spp. The assay can be described thus: Susceptibility (MIC), agar dilution, Streptococcus spp. Format: cell-based. Particulars: 6 from 9 Streptococcus strains. As for the experimental part:
as §1, §2, §3

Assay [4] in a line: In-vivo: residual protection, radiated samples after 5 days in oral cavity treated with acetic acid. Set-up: species or system human. From the text: N: number of tooth samples A: hardness(μm) after radiation and 5 days residence in the oral cavity B: hardness after radiation and 5 days in the oral cavity and treatment with acetic acid

“Epsilon-polylysine (elys; e-polylysine) [Product 6]” yielded a PF factor in assay [1] (3.6% product/water w/w, with CaCl2.2H2O and KH2PO4) of 70. The same substance registered an inhibitory concentration in assay [2] (17 from 31 microaerophilic strains) of 0.2 mg/mL.

In assay [1] (1.5% product/water w/w), “bisphosphonylated epsilon-polylysine [bisphosphonylated e-polylysine]” showed a PF factor of 99. Moreover, the “concentration inhibiting growth (MIC)” value in assay [3] was 1.7 mg/mL. The substance also returned a mic value in assay [2] (12 strains from 31 microaerophilic strains) of 0.2 mg/mL. Further, in assay [4] (acetic acid 0.1N, 30 min, 37° C. after 5 days in oral cavity), the “C: B−A (increase of depth of penetration by acid)” value is given as 3.9 μm. The “B: hardness after radiation and 5 days in the oral cavity and treatment with acetic acid” value in assay [4] (acetic acid 0.1N, pH 5, 30 min, 37° C.) is 44.5 μm. In addition, the “A: hardness after radiation and 5 days residence in the oral cavity” value in assay [4] (samples later treated with acid) amounted to 40.6 μm.

On to “casein phosphopeptide epsilon-polylysine copolymer [(CPP x elys)n]”, for which, in assay [1] (7.8% product/water w/w), the PF factor is 94.
